Experimental data reported in patent publication US8252737B2, “Antimicrobial peptides and methods of use” (priority 2004, dated 2012).
In brackets after ≈: the same amount, converted by molar mass. Read-outs that look alike come from different tables or passages of the source.

Key:
[1] = Circular dichroism spectroscopy of helical structure (benign buffer and 50% TFE); assay type: physicochemical
How it was run: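 Peptide CD spectra at 25 °C, 190–250 nm, in benign buffer (50 mM KH2PO4/K2HPO4, 100 mM KCl, pH 7) and in the same buffer with 50% TFE. Samples were a 10-fold dilution of ~500 μM stock. Mean residue molar ellipticity at 222 nm gave relative α-helicity.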

human erythrocytes = experiment: Hemolytic activity (MHC), Protocol B, 18 hours; conditions: for MHC (μg/ml) hRBC: maximal peptide concentration with no hemolysis after 18 hours
How it was run: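 Hemolysis of 1% human erythrocytes in phosphate-buffered saline by 2-fold diluted D-peptides, incubated 18 h at 37 °C; hemoglobin release read spectrophotometrically. Value is the maximal peptide concentration producing no hemolysis, relative to erythrocytes without peptide.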

[2] = Description: (§1) The geometric mean MIC values from 6 microbial strains in this table were calculated to provide an overall evaluation of antimicrobial activity against gram-negative bacteria.
(§2) Measurement of Antimicrobial Activity—Minimal inhibitory concentrations (MICs) were determined using a standard microtiter dilution method in LB (Luria-Bertani) no-salt medium (10 g of tryptone and 5 g of yeast extract per liter). Briefly, cells were grown overnight at 37° C. in LB and diluted in the same medium. […] Plates were incubated at 37° C. for 24 hours and MICs determined as the lowest peptide concentration that inhibited growth. Alternatively, minimal inhibitory concentrations were determined using a standard microtiter dilution method in a Mueller-Hinton (MH) medium. Briefly, cells were grown overnight at 37° C. in MH broth and diluted in the same medium. […] Plates were incubated at 37° C. for 24 hours and MICs determined as the lowest peptide concentration that inhibited growth. However, for MIC determination of Pseudomonas aeruginosa clinical isolates, brain heart infusion (BH1) medium was used instead of MH broth. In addition, the bacteria were diluted to a final inoculum of 1×10^6 colony-forming units/ml.

[3] = system: E. coli (UB 1005 wt and DC2 abs); conditions: for MIC (μg/ml) E. coli C500 abs: antibiotic sensitive strain; for MIC (μg/ml) E. coli C498 wt: wild-type lab strain
Description: as §1, §2

P. aeruginosa H187 wt = system: P. aeruginosa H187 wt
Description: as §1, §2

S. typhimurium C610 abs = system: S. typhimurium C610 abs
Description: as §1, §2

C. albicans = conditions: fungus
How it was run: (§3)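 Microtiter dilution in LB no-salt or Mueller-Hinton medium, with BHI for Pseudomonas aeruginosa clinical isolates (final inoculum 1×10^6 CFU/ml). Plates were incubated 24 hours at 37° C. MIC was the lowest peptide concentration inhibiting growth.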

E. faecalis = system: E. faecalis
How it was run: as §3

[4] = system: Staphylococcus epidermidis
[5] = 5° C., 100 mM KCl, 50 mM PO4 pH 7.4
[6] = 5° C., relative to D-V681 in 50% TFE
[7] = 5° C., benign buffer pH 7.4 containing 50% TFE
[8] = 5° C., pH 7.4 benign, relative to D-V681 in 50% TFE
[9] = 25° C., relative to NAL in 50% TFE
[10] = 25° C., benign buffer (100 mM KCl, 50 mM PO4 pH 7.0)
[11] = 25° C., benign buffer diluted 1:1 (v/v) with TFE
[12] = 25° C., benign buffer, relative to NAL in 50% TFE
[13] = maximal peptide concentration producing no hemolysis after 18 hours, 37° C.

Structure (SMILES)	[θ]222 Benign [1, 5]	% helix 50% TFE [1, 6]	[θ]222 50% TFE [1, 7]	% helix Benign [1, 8]	% helix 50% TFE [1, 9]	[θ]222 Benign [1, 10]	[θ]222 50% TFE [1, 11]	% helix Benign [1, 12]	Hemolytic activity MHC (human erythrocytes; [13])	MHC (μg/ml) hRBC (human erythrocytes; Table 11)	MHC (μg/ml) hRBC (human erythrocytes; Table 12)	MIC (μg/ml) E. coli C500 abs [3]	MIC (μg/ml) E. coli C498 wt [3]	MIC (μg/ml) C. albicans (C. albicans)	MIC (μg/ml) S. epidermidis C621 wt [4]	MIC (μg/ml) C. xerosis C875 wt (Corynebacterium xerosis)	further results
CC[C@H](C)[C@H](NC(=O)[C@H](C)NC(=O)[C@H](CCCCN)NC(=O)[C@H](CC(C)C)NC(=O)[C@H](C)NC(=O)[C@@H](NC(=O)[C@H](Cc1cnc[nH]1)NC(=O)[C@H](CC(C)C)NC(=O)[C@@H](NC(=O)[C@@H](NC(=O)[C@H](CCCCN)NC(=O)[C@H](CCCCN)NC(=O)[C@H](C)NC(=O)[C@H](CO)NC(=O)[C@H](CCCCN)NC(=O)[C@H](Cc1ccccc1)NC(=O)[C@@H](NC(=O)[C@H](CCCCN)NC(=O)[C@H](CC(C)C)NC(=O)[C@H](Cc1ccccc1)NC(=O)[C@H](CO)NC(=O)[C@H](CCCCN)NC(=O)[C@H](Cc1c[nH]c2ccccc12)NC(=O)[C@H](CCCCN)NC(C)=O)[C@@H](C)O)[C@@H](C)O)C(C)C)[C@@H](C)O)C(=O)N[C@@H](CO)C(=O)N[C@@H](CO)C(N)=O [NKL]	−1400 deg · cm^2 · dmol^−1	96%	−27000 deg · cm^2 · dmol^−1	5%	91%	−1,450 deg · cm^2 · dmol^−1	−26,250 deg · cm^2 · dmol^−1	5%	250.0 µg/mL	250.0 µg/mL	250.0 µg/mL	3.1 µg/mL (≈ 1.04 µM)	3.1 µg/mL (≈ 1.04 µM)	50.0 µg/mL (≈ 16.7 µM)	6.3 µg/mL (≈ 2.11 µM)	1.6 µg/mL (≈ 0.535 µM)	Hemolytic activity Fold (human erythrocytes; fold decrease in hemolytic activity compared to V681, 18 hours): 32; Hemolytic activity MHC (human erythrocytes; maximal peptide concentration showing no hemolysis after 18 hours, hRBC, Table 14): 250.0 µg/mL; MIC (μg/ml) St C587 wt ([2]; Salmonella typhimurium wild-type lab strain): 6.3 µg/mL (≈ 2.11 µM); MIC (μg/ml) Pa H188 abs (P. aeruginosa H187 wt; Pseudomonas aeruginosa antibiotic sensitive strain): 3.1 µg/mL (≈ 1.04 µM); MIC (μg/ml) Pa H187 wt (P. aeruginosa H187 wt; Pseudomonas aeruginosa wild-type lab strain): 6.3 µg/mL (≈ 2.11 µM); MIC (μg/ml) St C610 abs (S. typhimurium C610 abs; Salmonella typhimurium antibiotic sensitive strain): 3.1 µg/mL (≈ 1.04 µM); MIC (μg/ml) E. faecalis C625 wt (E. faecalis; wild type strain): 50.0 µg/mL (≈ 16.7 µM)
CC[C@H](C)[C@H](NC(=O)[C@H](C)NC(=O)[C@H](CCCCN)NC(=O)[C@H](CC(C)C)NC(=O)[C@H](C)NC(=O)[C@@H](NC(=O)[C@H](Cc1c[nH]cn1)NC(=O)[C@H](CC(C)C)NC(=O)[C@@H](NC(=O)[C@@H](NC(=O)[C@H](CCCCN)NC(=O)[C@@H](NC(=O)[C@H](C)NC(=O)[C@H](CO)NC(=O)[C@H](CCCCN)NC(=O)[C@H](Cc1ccccc1)NC(=O)[C@@H](NC(=O)[C@H](CCCCN)NC(=O)[C@H](CC(C)C)NC(=O)[C@H](Cc1ccccc1)NC(=O)[C@H](CO)NC(=O)[C@H](CCCCN)NC(=O)[C@H](Cc1c[nH]c2ccccc12)NC(=O)[C@H](CCCCN)NC(C)=O)[C@@H](C)O)C(C)C)[C@@H](C)O)C(C)C)[C@@H](C)O)C(=O)N[C@@H](CO)C(=O)N[C@@H](CO)C(N)=O [Peptide V681, reference compound]	−13000 deg · cm^2 · dmol^−1	99%	−27950 deg · cm^2 · dmol^−1	46%	94%	−12,900 deg · cm^2 · dmol^−1	−27,300 deg · cm^2 · dmol^−1	45%	7.8 µg/mL	7.8 µg/mL	7.8 µg/mL	3.1 µg/mL (≈ 1.05 µM)	6.3 µg/mL (≈ 2.13 µM)	12.5 µg/mL (≈ 4.22 µM)	6.3 µg/mL (≈ 2.13 µM)	3.1 µg/mL (≈ 1.05 µM)	MIC (μg/ml) St C587 wt ([2]; C610 abs): 12.5 µg/mL (≈ 4.22 µM); MIC (μg/ml) Pa H188 abs (P. aeruginosa H187 wt): 3.1 µg/mL (≈ 1.05 µM); MIC (μg/ml) Pa H187 wt (P. aeruginosa H187 wt; H187 wt): 6.3 µg/mL (≈ 2.13 µM); MIC (μg/ml) St C610 abs (S. typhimurium C610 abs; C610 abs): 3.1 µg/mL (≈ 1.05 µM); MIC (μg/ml) E. faecalis C625 wt (E. faecalis): 6.3 µg/mL (≈ 2.13 µM)
